Experimental data: patent publication US10344049B2, “Substituted steroids for the treatment of cancer” (AQUAVAN TECHNOLOGY CO., LTD., priority 2017, dated 2019)
Where two headings read alike, the source gives them in different places.

Experiments:
Format in all cases: cell-based
[1] = system: human leukemia cells U937; test: Cell viability test (Resazurin), U937 cells
Description: (§1) Cell viability was determined with Resazurin (at a final concentration of 25 μg/mL).

[2] = system: African green monkey kidney cells Vero; test: Cell viability test (Resazurin), Vero cells
Description: as §1

[3] = system: human breast cancer cells MDA-MB-468; test: Cell viability test (Resazurin), MDA-MB-468 cells
Description: as §1

[4] = system: human breast cancer cells MDA-MB-231; test: Cell viability test (Resazurin), MDA-MB-231 cells
Description: as §1

[5] = system: human colorectal cancer cells SW-480; test: Cell viability test (Resazurin), SW480 cells; set-up: evaluation of ability to inhibit cell growth activity (IC50): scale not given here
Description: as §1

[6] = system: human lung cancer cells A549; test: Cell viability test (Resazurin), A549 cells; set-up: evaluation of ability to inhibit cell growth activity (IC50): scale not given here
Description: as §1

[7] = system: human liver cancer cells Mahlavu; test: Cell viability test (Resazurin), Mahlavu cells
Description: as §1

[8] = system: human Glioblastoma cells U87-MG; test: Cell viability test (Resazurin), U87-MG cells
Description: as §1

[9] = Homo sapiens, U-937, 48 h, U937 cells, 48 hours, 0.1% FCS, Resazurin, read-out: inhibitory concentrations of cell growth activity IC50
[10] = Homo sapiens, U-937, U937 cells, grade of the IC50 of Table 2, read-out: evaluation of ability to inhibit cell growth activity (IC50)
[11] = Chlorocebus sabaeus, Vero, 48 h, 0.1% FCS, Resazurin, read-out: inhibitory concentrations of cell growth activity IC50
[12] = Chlorocebus sabaeus, Vero, grade of the IC50 of Table 2, read-out: evaluation of ability to inhibit cell growth activity (IC50)
[13] = Homo sapiens, MDA-MB-468, 48 h, MDA-MB-468 cells, 48 hours, 0.1% FCS, Resazurin, read-out: inhibitory concentrations of cell growth activity IC50
[14] = Homo sapiens, MDA-MB-468, MDA-MB-468 cells, grade of the IC50 of Table 2, read-out: evaluation of ability to inhibit cell growth activity (IC50)
[15] = Homo sapiens, MDA-MB-231, 48 h, MDA-MB-231 cells, 48 hours, 0.1% FCS, Resazurin, read-out: inhibitory concentrations of cell growth activity IC50
[16] = Homo sapiens, MDA-MB-231, MDA-MB-231 cells, grade of the IC50 of Table 2, read-out: evaluation of ability to inhibit cell growth activity (IC50)
[17] = Homo sapiens, SW480, 48 h, SW480 cells, 48 hours, 0.1% FCS, Resazurin, read-out: inhibitory concentrations of cell growth activity IC50
[18] = Homo sapiens, SW480, SW480 cells, grade of the IC50 of Table 2, read-out: evaluation of ability to inhibit cell growth activity (IC50)
[19] = Homo sapiens, A549, 48 h, A549 cells, 48 hours, 0.1% FCS, Resazurin, read-out: inhibitory concentrations of cell growth activity IC50
[20] = Homo sapiens, A549, A549 cells, grade of the IC50 of Table 2, read-out: evaluation of ability to inhibit cell growth activity (IC50)
[21] = Homo sapiens, Mahlavu, 48 h, 0.1% FCS, Resazurin, read-out: inhibitory concentrations of cell growth activity IC50
[22] = Homo sapiens, Mahlavu, grade of the IC50 of Table 2, read-out: evaluation of ability to inhibit cell growth activity (IC50)
[23] = Homo sapiens, U-87 MG, 48 h, 0.1% FCS, Resazurin, read-out: inhibitory concentrations of cell growth activity IC50
[24] = Homo sapiens, U-87 MG, grade of the IC50 of Table 2, read-out: evaluation of ability to inhibit cell growth activity (IC50)
[25] = U937 cells, 48 hours, 0.1% FCS, Resazurin, read-out: inhibitory concentrations of cell growth activity IC50
[26] = 48 hours, 0.1% FCS, Resazurin, read-out: inhibitory concentrations of cell growth activity IC50
[27] = grade of the IC50 of Table 2, read-out: evaluation of ability to inhibit cell growth activity (IC50)
[28] = MDA-MB-468 cells, 48 hours, 0.1% FCS, Resazurin, read-out: inhibitory concentrations of cell growth activity IC50
[29] = MDA-MB-468 cells, grade of the IC50 of Table 2
[30] = MDA-MB-231 cells, 48 hours, 0.1% FCS, Resazurin, read-out: inhibitory concentrations of cell growth activity IC50
[31] = MDA-MB-231 cells, grade of the IC50 of Table 2, read-out: evaluation of ability to inhibit cell growth activity (IC50)
[32] = SW480 cells, 48 hours, 0.1% FCS, Resazurin, read-out: inhibitory concentrations of cell growth activity IC50
[33] = A549 cells, 48 hours, 0.1% FCS, Resazurin, read-out: inhibitory concentrations of cell growth activity IC50
[34] = A549 cells, grade of the IC50 of Table 2, read-out: evaluation of ability to inhibit cell growth activity (IC50)

Structure (SMILES) | IC50 [1, 9] | IC50 [1, 10] | IC50 [2, 11] | IC50 [2, 12] | IC50 [3, 13] | IC50 [3, 14] | IC50 [4, 15] | IC50 [4, 16] | IC50 [5, 17] | IC50 [5, 18] | IC50 [6, 19] | IC50 [6, 20] | IC50 [7, 21] | IC50 [7, 22] | IC50 [8, 23] | IC50 [8, 24] | IC50 [1, 25] | IC50 [2, 26] | IC50 [2, 27] | evaluation of ability to inhibit cell growth activity (IC50) [3, 29] | further results
C[C@H](C/C=C/C(C)(C)O)[C@H]1CC[C@@]2(C)[C@@H]3[C@@H](O)C=C4[C@@H](CC[C@H](O)C4(C)C)[C@]3(C=O)CC[C@]12C [Compound 1] | 36.6 µM | 16 to 64 µM | > 256 µM | > 256 µM | > 256 µM | > 256 µM | > 256 µM | > 256 µM | > 256 µM | > 256 µM | > 256 µM | > 256 µM | > 256 µM | > 256 µM | 150 µM | 64 to 256 µM | – | – | – | – | –
CC(=O)O[C@H]1C=C2[C@@H](CC[C@H](O)C2(C)C)[C@]2(C=O)CC[C@]3(C)[C@@H]([C@H](C)C[C@@H](O)C=C(C)C)CC[C@@]3(C)[C@H]12 [Compound 8] | – | – | – | – | – | – | – | – | – | – | – | – | – | – | – | – | 5.39 µM | 24.2 µM | 16 to 64 µM | ◯ | IC50 ([1]; U937 cells, grade of the IC50 of Table 2, read-out: evaluation of ability to inhibit cell growth activity (IC50)): < 8 µM; IC50 [3, 28]: 9.81 µM; IC50 [4, 30]: 5.19 µM; IC50 [4, 31]: < 8 µM; IC50 [5, 32]: 13.8 µM; evaluation of ability to inhibit cell growth activity (IC50) ([5]; SW480 cells, grade of the IC50 of Table 2): ◯; IC50 [6, 33]: 4.86 µM; IC50 [6, 34]: < 8 µM; IC50 [7, 26]: 11.5 µM; evaluation of ability to inhibit cell growth activity (IC50) ([7]; grade of the IC50 of Table 2): ◯; IC50 [8, 26]: 7.54 µM; IC50 [8, 27]: < 8 µM
CC(=O)O[C@H]1C=C2[C@@H](CC[C@H](OC(C)=O)C2(C)C)[C@]2(C=O)CC[C@]3(C)[C@@H]([C@H](C)C[C@H](C=C(C)C)OC(C)=O)CC[C@@]3(C)[C@H]12 [Compound 3] | 3.45 µM | < 8 µM | > 256 µM | > 256 µM | 10.4 µM | 8 to 16 µM | 5.2 µM | < 8 µM | 18.2 µM | 16 to 64 µM | 12.2 µM | 8 to 16 µM | 23 µM | 16 to 64 µM | 6.82 µM | < 8 µM | – | – | – | ◯ | evaluation of ability to inhibit cell growth activity (IC50) ([6]; A549 cells, grade of the IC50 of Table 2): ◯
COC1O[C@]23C=C[C@@H]4[C@@]1(CC[C@]1(C)[C@@H]([C@H](C)C/C=C/C(C)(C)OC)CC[C@@]41C)[C@@H]2CC[C@H](O)C3(C)C (stereo partly drawn) [Compound 17] | – | – | – | – | – | – | – | – | – | – | – | – | – | – | – | – | 12.2 µM | > 256 µM | > 256 µM | ◯ | evaluation of ability to inhibit cell growth activity (IC50) ([1]; U937 cells, grade of the IC50 of Table 2): ◯; IC50 [3, 28]: 9.4 µM; IC50 [4, 30]: > 256 µM; IC50 [4, 31]: > 256 µM; IC50 [5, 32]: > 256 µM; IC50 ([5]; SW480 cells, grade of the IC50 of Table 2, read-out: evaluation of ability to inhibit cell growth activity (IC50)): > 256 µM; IC50 [6, 33]: > 256 µM; IC50 [6, 34]: > 256 µM; IC50 [7, 26]: > 256 µM; IC50 [7, 27]: > 256 µM; IC50 [8, 26]: > 256 µM; IC50 [8, 27]: > 256 µM
